{
  "source": "paper PMC8512764",
  "about": "“New 4-Aminoproline-Based Small Molecule Cyclopeptidomimetics as Potential Modulators of α4β1 Integrin” (Molecules, 2021)",
  "key": {"Jurkat cells": {"test_system": "Jurkat cells", "experiment": "Jurkat cell adhesion to wells coated with compound 16 (absence of VCAM-1)", "type": "cell-based", "experimental": "In a second set of experiments, the ability of compound 16 to increase cell adhesion was tested in the absence of VCAM-1. Wells were coated by passive adsorption with compound 16 or BSA (both at 10 µg/mL) as a negative control and Jurkat cell adhesion was measured (Figure 8b).\n(§1) The number of adherent cells was determined as described above."}, "α4β1/VCAM-1 interaction": {"test_system": "α4β1/VCAM-1 interaction", "set-up": "method as in PMID 10072689", "conditions": "Jurkat cell adhesion assay; read-out: IC50, inhibition of α4β1/VCAM-1 interaction; cited from earlier work"}, "α4β7 integrin": {"test_system": "α4β7 integrin", "set-up": "method as in PMID 10072689", "conditions": "cited from earlier work"}, "[1]": {"test_system": "allergic bronchoconstriction", "set-up": "method as in PMID 10072689", "conditions": "administered as an aerosol; cited from earlier work"}, "[2]": {"set-up": "method as in PMID 31338363, PMID 26101577", "conditions": "cited from earlier work"}, "α4β1 integrin [3]": {"biological_target": "T1, α4β1 integrin (Homo sapiens, UniProt P05556+P13612)", "T1 construct": "Jurkat cells endogenously express α4β1 integrin; host or cells: Jurkat E6.1 cells", "T1 sequence (P13612 34-1032)": "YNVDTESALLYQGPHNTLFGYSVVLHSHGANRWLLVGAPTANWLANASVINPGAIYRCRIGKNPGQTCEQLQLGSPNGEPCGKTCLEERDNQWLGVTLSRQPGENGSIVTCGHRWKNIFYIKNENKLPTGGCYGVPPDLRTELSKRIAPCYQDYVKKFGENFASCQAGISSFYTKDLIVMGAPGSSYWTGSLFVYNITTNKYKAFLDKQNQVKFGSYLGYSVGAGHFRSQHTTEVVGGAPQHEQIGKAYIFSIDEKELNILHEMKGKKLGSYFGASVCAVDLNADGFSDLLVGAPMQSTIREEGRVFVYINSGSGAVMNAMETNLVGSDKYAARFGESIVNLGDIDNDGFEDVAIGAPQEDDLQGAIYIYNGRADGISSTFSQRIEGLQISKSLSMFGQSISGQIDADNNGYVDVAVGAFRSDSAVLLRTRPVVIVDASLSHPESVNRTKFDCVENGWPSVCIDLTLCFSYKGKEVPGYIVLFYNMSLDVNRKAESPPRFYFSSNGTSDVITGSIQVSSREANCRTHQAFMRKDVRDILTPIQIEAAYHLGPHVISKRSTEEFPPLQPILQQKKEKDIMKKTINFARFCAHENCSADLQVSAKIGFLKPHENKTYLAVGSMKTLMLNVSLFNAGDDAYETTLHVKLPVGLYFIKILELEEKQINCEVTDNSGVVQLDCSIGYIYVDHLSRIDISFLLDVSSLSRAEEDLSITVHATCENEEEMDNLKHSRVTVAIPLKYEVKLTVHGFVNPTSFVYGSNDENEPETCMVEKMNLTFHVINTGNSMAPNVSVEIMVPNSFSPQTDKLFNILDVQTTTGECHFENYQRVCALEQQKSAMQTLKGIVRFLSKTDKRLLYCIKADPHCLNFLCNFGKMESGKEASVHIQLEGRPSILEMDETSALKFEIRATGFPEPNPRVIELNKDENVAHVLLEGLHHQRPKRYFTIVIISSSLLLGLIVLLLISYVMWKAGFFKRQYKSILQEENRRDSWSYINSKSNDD", "T1 sequence (P05556 21-798)": "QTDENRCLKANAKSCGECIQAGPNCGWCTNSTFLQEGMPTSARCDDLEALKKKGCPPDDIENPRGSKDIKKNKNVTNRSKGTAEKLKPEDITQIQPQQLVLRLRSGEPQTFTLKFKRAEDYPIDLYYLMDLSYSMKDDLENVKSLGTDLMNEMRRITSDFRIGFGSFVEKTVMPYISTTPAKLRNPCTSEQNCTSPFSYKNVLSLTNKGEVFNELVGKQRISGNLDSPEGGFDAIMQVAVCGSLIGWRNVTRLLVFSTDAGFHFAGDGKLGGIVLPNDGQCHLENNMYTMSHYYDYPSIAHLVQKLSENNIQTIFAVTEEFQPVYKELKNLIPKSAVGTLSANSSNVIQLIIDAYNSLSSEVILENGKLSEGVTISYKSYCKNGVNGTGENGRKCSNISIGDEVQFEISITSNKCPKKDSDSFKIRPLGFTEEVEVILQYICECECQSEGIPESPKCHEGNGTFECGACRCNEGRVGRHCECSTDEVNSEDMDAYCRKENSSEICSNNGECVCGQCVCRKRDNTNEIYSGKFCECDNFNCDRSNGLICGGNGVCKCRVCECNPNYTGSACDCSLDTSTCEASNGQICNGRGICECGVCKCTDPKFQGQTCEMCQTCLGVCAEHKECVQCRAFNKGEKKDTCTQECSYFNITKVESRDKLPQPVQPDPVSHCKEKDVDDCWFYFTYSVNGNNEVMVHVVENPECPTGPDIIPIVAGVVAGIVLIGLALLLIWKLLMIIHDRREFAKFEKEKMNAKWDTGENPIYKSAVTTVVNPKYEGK", "conditions": "cited from earlier work"}, "α4β1 integrin [4]": {"biological_target": "T1, α4β1 integrin", "experiment": "Jurkat cell adhesion assay on VCAM-1-coated wells", "type": "cell-based", "experimental": "To investigate the ability of the newly synthesized cyclopeptidomimetics 12–18 to recognize and bind α4β1 integrin, cell adhesion assays were performed on VCAM-1. The compounds were evaluated for their ability to interfere with α4β1 integrin-mediated cell adhesion by using Jurkat cells, which are known to constitutively express this integrin [46, 48, 49, 50, 51].\nJurkat E6.1 cells were purchased from American Type Culture Collection (ATCC, Rockville, MD, USA) and were routinely cultured in RPMI-1640 (LifeTechnologies, Milan, Italy) supplemented with 10% FBS (fetal bovine serum, Life Technologies) and 2 mM glutamine. Cells were kept at 37 °C under 5% CO2 humidified atmosphere. Jurkat cells are a widely used cell model to study potential agonist or antagonist ligands able to modulate integrin-mediated cell adhesion. Jurkat cells endogenously express α4β1 integrin [13].\nThe assays were performed as previously described. In brief, black 96 well plates were coated with VCAM-1 (2 μg/mL) overnight at 4 °C; then, non-specific hydrophobic binding sites were blocked with 1% BSA (bovine serum albumin, Sigma-Aldrich) in HBSS (Life Technologies) for 30 min at 37 °C. Jurkat cells were labelled with CellTracker green CMFDA (12.5 μM, Life Technolgies) and pre-incubated with various concentration (10^−4–10^−10 M) of each new cyclopeptidomimetic or with the vehicle (DMSO) for 30 min at 37 °C. Afterwards, Jurkat cells were plated on VCAM-1-coated wells and incubated for 30 min at 37 °C. Then, wells were washed three times with 1% BSA in HBSS and Jurkat cells were lysed with 0.5% Triton X-100 in PBS for 30 min at 4 °C. Green fluorescence (Ex485 nm/Em 535 nm) was measured in an EnSpire Multimode Plate Reader (PerkinElmer, Waltham, MA, USA). Experiments were performed in quadruplicate and repeated at least three times. The number of adherent cells was determined by comparison with a standard curve made with a known concentration of labelled Jurkat cells. Data analysis and IC50/EC50 values were calculated using GraphPad Prism 6.0 (GraphPad Software, San Diego, CA, USA).\nas §1"}, "human α4β1 integrin": {"test_system": "human α4β1 integrin", "set-up": "method as in PMID 30051467", "conditions": "cited from earlier work"}, "α4 integrin": {"test_system": "α4 integrin", "set-up": "method as in PMID 30051467", "conditions": "cited from earlier work"}, "allergic conjunctivitis": {"test_system": "allergic conjunctivitis", "set-up": "method as in PMID 30051467", "conditions": "cited from earlier work"}, "α4β1 receptor": {"biological_target": "α4β1 receptor", "set-up": "method as in PMID 16767086", "conditions": "Jurkat cell assay; read-out: IC50, affinity toward α4β1 receptor; cited from earlier work"}, "α4β1–positive cells": {"test_system": "α4β1–positive cells", "set-up": "method as in PMID 16767086", "conditions": "cited from earlier work"}, "[5]": {"test_system": "endothelial progenitor cells", "set-up": "method as in PMID 23703610", "conditions": "α4β1-dependent; cited from earlier work"}},
  "note": "“Also recorded” adds a separate entry of the source. *1 amine or outer side, *2 acyl side, *3 side chain or, on linkers, in order; H or OH if unused. Where a SMILES comes first, the peptide text is derived from it. Bridges are numbered along the chain shown (N, C = ends). [ ]: non-standard residue; d: D form. The star is where a group is joined. ξ: configuration not given here. ξPro(4ξ-NH2) = O=C(C1CC(N[*:3])CN1[*:1])[*:2]; X1 = O=C(Cc1ccc(N[*:1])cc1)[*:2]; NH(2-Me-phenyl) = Cc1ccccc1N*; CO = O=C([*:1])[*:2]",
  "data": [
    {"smiles": "Cc1ccccc1NC(=O)Nc1ccc(CC(=O)N[C@@H](CC(C)C)C(=O)N[C@@H](CC(=O)O)C(=O)N[C@H](C(=O)N2CCC[C@H]2C(=O)O)C(C)C)cc1", "note": "[BIO1211, MPUPA-Leu-Asp-Val-Pro] ({NH(2-Me-phenyl)-CO}-[X1]LDVP-OH)", "values": [
      {"measurement": "Effect of BIO1211 on cell adhesion induced by coated compound 16", "setting": "Jurkat cells; BIO1211 10 nM–100 mM, wells coated with compound 16 10 μg/mL", "value": "not able to reduce the increment of cell adhesion induced by compound 16"},
      {"measurement": "IC50", "setting": "α4β1/VCAM-1 interaction", "value": 4, "unit": "nM"},
      {"measurement": "IC50", "setting": "α4β7 integrin", "value": 2000, "unit": "nM"},
      {"measurement": "Efficacy in sheep model of allergic bronchoconstriction", "setting": "[1]", "value": "prophylactic efficacy"},
      {"measurement": "Enzymatic stability", "setting": "[2]", "value": "a certain enzymatic instability"}
    ]},
    {"smiles": "Cc1ccccc1NC(=O)Nc1ccc(CNC(=O)C2=CCN(C(=O)CC(=O)O)[C@@H]2C(C)C)cc1", "note": "[Compound 11a]", "values": [
      {"measurement": "IC50, inhibition of α4β1/VCAM interaction", "setting": "α4β1 integrin [3]", "value": "in the nanomolar range"},
      {"measurement": "Enzymatic stability", "setting": "[2]", "value": "superior enzymatic stability respect to cyclic peptides 8–10"}
    ]},
    {"smiles": "Cc1ccccc1NC(=O)Nc1ccc(CNC(=O)C2=CCN(C(=O)CC(=O)O)[C@H]2C(C)C)cc1", "note": "[Compound 11b]", "values": [
      {"measurement": "Inhibitory potency towards α4β1 integrin", "setting": "α4β1 integrin [3]", "value": "considerably less active"}
    ]},
    {"smiles": "Cc1ccccc1NC(=O)Nc1ccc(CC(=O)N2CC3CC2C(=O)NC(C(C)C)C(=O)NC(CC(=O)O)C(=O)NC(CC(C)C)C(=O)N3)cc1", "note": "(stereo not drawn) [Compound 16, c[(MPUPA)Amp-Val-Asp-Leu]] ({NH(2-Me-phenyl)-CO}-[X1][ξPro(4ξ-NH2)]VDL; lactam 2-C; configuration not given here)", "values": [
      {"measurement": "Behaviour in α4β1 integrin-mediated cell adhesion (agonist/antagonist)", "setting": "α4β1 integrin [4]; Jurkat cell adhesion to VCAM-1 (2 μg/mL)", "value": "agonist"},
      {"measurement": "EC50", "setting": "α4β1 integrin [4]; Jurkat cell adhesion to VCAM-1 (2 μg/mL), means ± SD, n = 3, read-out: EC50/IC50 (EC50 for compounds enhancing cell adhesion)", "value": "370 ± 90", "unit": "nM"},
      {"measurement": "Effect of compound 16 on the reduced cell adhesion induced by BIO1211", "setting": "α4β1 integrin [4]; cells pre-incubated with BIO1211 (1 μM) 30 min, then compound 16 (100 μM)", "value": "not able to modify the reduction in adhesion induced by BIO1211; also recorded: not able to modify the reduced cell adhesion induced by BIO1211"},
      {"measurement": "Effect on Jurkat cell adhesion to VCAM-1", "setting": "α4β1 integrin [4]; compound 16 100 μM", "value": "increasing the adhesion of Jurkat cells to VCAM-1"},
      {"measurement": "Jurkat cell adhesion to compound-coated wells", "setting": "Jurkat cells; wells coated with 10 μg/mL, absence of VCAM-1, vs BSA-coated wells", "value": "able to induce Jurkat cell adhesion; also recorded: significant adhesion of Jurkat cells"}
    ]},
    {"smiles": "Cc1ccccc1NC(=O)Nc1ccc(CC(=O)N2CC[C@H](C(=O)NCC(=O)O)C2)cc1", "note": "[DS-70]", "values": [
      {"measurement": "Binding affinity for human α4β1 integrin", "setting": "human α4β1 integrin", "value": "high binding affinity"},
      {"measurement": "Antagonist activity of α4–mediated cell adhesion", "setting": "α4 integrin", "value": "potent antagonist activity"},
      {"measurement": "Outcome in guinea pig model of allergic conjunctivitis", "setting": "allergic conjunctivitis", "value": "successfully tested"}
    ]},
    {"smiles": "Cc1ccccc1NC(=O)Nc1ccc(CC(=O)N[C@@H](CCCCNC(=O)/C=C/c2cccnc2)C(=O)N[C@@H](CCCC(=O)O)C(=O)NC2(C(N)=O)CCCCC2)cc1", "note": "[LLP2A]", "values": [
      {"measurement": "IC50", "setting": "α4β1 receptor", "value": 0.002, "unit": "nM"},
      {"measurement": "Effect on cell proliferation and survival of α4β1–positive cells", "setting": "α4β1–positive cells", "value": "without any effect"}
    ]},
    {"smiles": "CCCC[C@@H](COC(=O)N(Cc1cccs1)Cc1cccs1)NC(=O)N[C@@H](CC(=O)OC)c1ccc2c(c1)OCO2", "note": "[THI0019]", "values": [
      {"measurement": "Effect on endothelial progenitor cells in vitro", "setting": "[5]", "value": "enhanced the rolling, spreading, adhesion, and migration"}
    ]}
  ]
}
